These results are taken from patent US20070049518A1, “Novel method of treatment of inflammatory skin conditions” (priority 2005, published 2007).

For data set [1], the system named is Aureolysin in S. aureus 8325-4 culture supernatant. The experiment in a line: Aureolysin activity in supernatant of S. aureus grown with compound. In kind it is cell-based, Staphylococcus aureus. Here is the method:
(§1) Duplicate samples of brain heart infusion medium (5 ml; Becton Dickinson and Co.) containing 10% skimmed milk and 2% (v/v) DMSO vehicle±Compound 12 were inoculated with S. aureus 8325-4 (approximately 10^7 cells in tryptic soy broth) and incubated for 16 h at 37° C./220 rpm. Cultures were centrifuged to remove bacteria and the culture supernatants stored at −70° C. pending analysis of protease activity.
(§2) Enzyme activities were measured in mixtures containing 90 mM MOPS (sodium) buffer pH 7.0 (0.1 ml), 0.045% Brij 35, 2% (v/v) DMSO vehicle±Compound 12 and culture supernatant (4 μl). The concentration of compound used was the same as that which had been used to culture the assayed sample. Further additions to the reaction mixtures were as follows. Aureolysin assay: 4.5 mM calcium chloride, 9 μM E-64 (to inhibit cysteine protease activity) and 10 μM Mca-Pro-Leu-Gly-Leu-Dap(Dnp)-Ala-Arg-amide (Bachem); V8 protease assay: 10 μM Mca-Leu-Glu-Val-Asp-Gly-Trp-Lys(Dnp)-amide (Bachem); cysteine protease assay: 1.8 mM cysteine-HCl (pH-adjusted with NaOH), 9 mM EDTA and 0.1 mM Z-Phe-Arg-AMC hydrochloride (Bachem). The rate of product formation at 37° C. was monitored over 6 h taking readings at 15 min intervals using a POLARstar OPTIMA plate reader (BMG LABTECH Ltd) with 320 nm excitation/405 nm emission for aureolysin and V8 assays and 390 nm excitation/460 nm emission for the cysteine protease assay. Enzyme activities were determined from the linear rate of fluorescence increase and converted to percent inhibition by reference to vehicle control samples.

For data set [2], the system named is Cysteine protease in S. aureus 8325-4 culture supernatant. The experiment in a line: Cysteine protease activity in supernatant of S. aureus grown with compound. The class given is cell-based, Staphylococcus aureus. Here is the method: as §1, §2
The target of data set [3] is T1, recombinant human cathepsin D (Homo sapiens, UniProt P07339).
T1 construct: recombinant human cathepsin D (R&D Systems Inc); purchased R&D Systems Inc
T1 sequence (P07339 65-412): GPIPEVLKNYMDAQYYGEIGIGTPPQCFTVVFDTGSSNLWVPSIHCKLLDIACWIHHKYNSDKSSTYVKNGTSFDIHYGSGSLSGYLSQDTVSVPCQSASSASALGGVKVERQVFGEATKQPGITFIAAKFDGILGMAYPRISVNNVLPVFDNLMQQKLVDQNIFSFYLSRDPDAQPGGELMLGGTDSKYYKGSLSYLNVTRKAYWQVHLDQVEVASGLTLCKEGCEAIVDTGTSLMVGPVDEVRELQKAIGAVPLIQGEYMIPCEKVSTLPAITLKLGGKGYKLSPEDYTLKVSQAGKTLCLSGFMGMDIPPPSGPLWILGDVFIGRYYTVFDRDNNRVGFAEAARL
The experiment in a line: Selectivity profile, cathepsin D. The class given is biochemical. Particulars: read-out: inhibition at 0.1 mM, Cathepsin D. How it is done:
(§3) Inhibitory activity was tested in reaction mixtures (0.1 ml) containing 2% (v/v) DMSO vehicle±compound plus additions as follows. V8 protease: 90 mM MOPS (sodium) buffer pH 7.0, […] calcium chloride, 0.045% Brij 35, 10 μM Mca-Leu-Glu-Val-Asp-Gly-Trp-Lys(Dnp)-amide (Bachem) and V8 (BioCentrum Ltd; 30 ng). Staphopain A and B: 90 mM MOPS (sodium) buffer pH 7.0, 1.8 mM cysteine-HCl (pH-adjusted with NaOH), 0.045% Brij 35, 0.1 mM Z-Phe-Arg-AMC hydrochloride (Bachem) and staphopain A or B (BioCentrum Ltd; 30 ng). Human kallikrein 5: 0.1M sodium phosphate buffer pH 8.0, 0.045% Brij 35, 0.1 mM Boc-Val-Pro-Arg-AMC (Sigma) and recombinant human kallikrein 5 (R&D Systems Inc; 6 ng). Human kallikrein 7: 72 mM Tris-HCl pH 8.0, 0.033% Brij 35, 1.2 mM S-2586 (Chromogenix Instrumentation Laboratory SpA) and recombinant human kallikrein 7 (R&D Systems Inc; 0.6 μg) that had been thermolysin-activated according to the manufacturer's instructions. Human angiotensin-converting enzyme (ACE): 45 mM MES (sodium) buffer pH 6.5, 0.045% Brij 35, 10 μM Mca-[…]Dnp)-OH(R&D Systems Inc) and recombinant human ACE (R&D Systems Inc; 1.3 ng). Human cathepsin D: 0.1M sodium acetate buffer pH 3.5, 0.2M sodium chloride, 0.045% Brij 35, 10 μM Mca-Pro-Leu-Gly-Leu-Dap(Dnp)-Ala-Arg-amide (Bachem) and recombinant human cathepsin D (R&D Systems Inc; 8 ng) activated according to the manufacturer's instructions. […]

The target of data set [4] is T2, recombinant human kallikrein 5 (Homo sapiens, UniProt Q9Y337).
T2 construct: purchased R&D Systems Inc
T2 sequence (Q9Y337 23-293): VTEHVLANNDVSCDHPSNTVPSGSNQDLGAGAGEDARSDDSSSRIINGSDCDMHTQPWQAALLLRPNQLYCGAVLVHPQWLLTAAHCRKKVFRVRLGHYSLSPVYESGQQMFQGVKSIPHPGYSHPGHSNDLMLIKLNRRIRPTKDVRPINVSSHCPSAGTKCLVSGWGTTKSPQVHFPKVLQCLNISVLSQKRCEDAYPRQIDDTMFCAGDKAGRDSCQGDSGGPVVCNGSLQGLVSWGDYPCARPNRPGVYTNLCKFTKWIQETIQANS
The data set is described as follows: Selectivity profile, kallikrein 5. In kind it is biochemical. Conditions: read-out: inhibition at 0.1 mM, Kallikrein 5. Here is the method:
as §3

In data set [5] the target is T3, recombinant human kallikrein 7 (Homo sapiens, UniProt P49862).
T3 construct: purchased R&D Systems Inc
T3 sequence (P49862 30-253): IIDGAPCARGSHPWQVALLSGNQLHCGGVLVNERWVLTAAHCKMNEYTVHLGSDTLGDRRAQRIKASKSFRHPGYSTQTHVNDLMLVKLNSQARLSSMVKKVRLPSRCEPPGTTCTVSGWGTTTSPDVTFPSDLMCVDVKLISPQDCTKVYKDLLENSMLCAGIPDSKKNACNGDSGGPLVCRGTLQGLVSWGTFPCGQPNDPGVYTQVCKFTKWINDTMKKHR
The data set is described as follows: Selectivity profile, kallikrein 7. The class given is biochemical. Particulars: read-out: inhibition at 0.1 mM, Kallikrein 7. Here is the method:
as §3

The next data set can be described thus: Solubility in water. In kind it is physicochemical. Particulars: particularly when the solid is in amorphous form.
Another data set addresses aureolysin (Staphylococcus aureus, UniProt P81177). The data set is described as follows: Inhibition of aureolysin-mediated pro-uPA activation. Particulars: for Relative activity: Aureolysin 1 μg/ml, pH 5.6.
The mark [6] stands for this setting: Compound 12 40 μM in culture and assay.
The mark [7] stands for this setting: Compound 12 79 μM in culture and assay.
The mark [8] stands for this setting: Compound 12 159 μM in culture and assay.
The mark [9] stands for this setting: Compound 12 317 μM in culture and assay.

aureolysin, sequence (P81177 209-509): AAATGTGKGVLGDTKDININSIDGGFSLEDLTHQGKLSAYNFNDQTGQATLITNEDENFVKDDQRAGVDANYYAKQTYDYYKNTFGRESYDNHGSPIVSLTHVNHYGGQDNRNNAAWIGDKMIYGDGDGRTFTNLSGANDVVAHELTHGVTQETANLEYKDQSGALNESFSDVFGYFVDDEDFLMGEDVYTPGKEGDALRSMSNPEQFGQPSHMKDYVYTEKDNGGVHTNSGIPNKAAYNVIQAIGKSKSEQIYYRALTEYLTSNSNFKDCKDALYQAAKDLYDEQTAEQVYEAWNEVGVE

Turning to `CNC(=O)[C@@H](NC(=O)[C@H](CC(=O)NO)CC(C)C)C(C)(C)C` [Compound 12, (S)—N1-((S)-3,3-dimethyl-1-(methylamino)-1-oxobutan-2-yl)-N4-hydroxy-2-isobutylsuccinamide], the “Inhibition (%) Aureolysin” value turned out to be 89% in data set [1] (setting [6]), 94% in data set [1] (setting [7]), 98% in data set [1] (setting [8]) and 99% in data set [1] (setting [9]). For the same compound, the “Inhibition (%) Cysteine protease” value in data set [2] (setting [6]) amounted to 27%; in data set [2] (setting [7]), 53%; in data set [2] (setting [8]), 78%; in data set [2] (setting [9]), 87%. For the same compound, the inhibition at 100 µM in data set [3] amounted to 1%; in data set [4] it was 0%; in data set [5] it was 0%. Also, the “solubility in water (in words)” value in the data set “Solubility in water” is given as “particularly soluble in water”. Moreover, the IC50 against aureolysin amounted to 2400 nM. Moreover, the Relative activity on aureolysin (Compound 12 25 μM) came to 37%; on aureolysin (Compound 12 317 μM), 8%.

As usually defined, the inhibition is the drop in the measured response relative to a control, in per cent. As usually defined, the IC50 is the point on the concentration scale where inhibition reaches its midpoint.
